One assay deals with T1, MEK2 (Homo sapiens, UniProt P36507).
T1 construct: gene MAP2K2; active MEK2 human recombinant protein
Briefly: SPR (Biacore T200, CM5 chip); also pull-down, DARTS and in vitro kinase assay. Format: binding. (In general: In SPR one partner is held on a chip, and binding of the other changes the refractive index at the surface.)

For a further assay, the target named is CDK4 (Homo sapiens, UniProt P11802). Briefly: pull-down with domperidone-Sepharose 4B beads and DARTS in KYSE150/KYSE450 lysates. Format: cell-based.
The next assay deals with T2, MEK1 (Homo sapiens, UniProt Q02750).
T2 construct: gene MAP2K1; active MEK1 human recombinant protein
Description: SPR (Biacore T200, CM5 chip); also pull-down, DARTS and in vitro kinase assay. Format: binding.

SMILES strings stand for the structures.

T2 sequence (Q02750 whole entry): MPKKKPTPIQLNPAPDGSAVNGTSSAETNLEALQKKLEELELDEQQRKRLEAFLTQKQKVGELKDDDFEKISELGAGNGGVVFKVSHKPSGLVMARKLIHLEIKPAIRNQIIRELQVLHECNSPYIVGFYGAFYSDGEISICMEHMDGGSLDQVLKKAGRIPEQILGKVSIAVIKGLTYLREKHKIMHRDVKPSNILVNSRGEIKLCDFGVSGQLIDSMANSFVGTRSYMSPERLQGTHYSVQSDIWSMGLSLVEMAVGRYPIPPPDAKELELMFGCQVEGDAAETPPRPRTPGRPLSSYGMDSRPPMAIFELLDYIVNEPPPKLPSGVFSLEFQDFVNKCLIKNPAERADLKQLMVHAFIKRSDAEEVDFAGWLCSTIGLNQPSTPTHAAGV
T1 sequence (P36507 whole entry): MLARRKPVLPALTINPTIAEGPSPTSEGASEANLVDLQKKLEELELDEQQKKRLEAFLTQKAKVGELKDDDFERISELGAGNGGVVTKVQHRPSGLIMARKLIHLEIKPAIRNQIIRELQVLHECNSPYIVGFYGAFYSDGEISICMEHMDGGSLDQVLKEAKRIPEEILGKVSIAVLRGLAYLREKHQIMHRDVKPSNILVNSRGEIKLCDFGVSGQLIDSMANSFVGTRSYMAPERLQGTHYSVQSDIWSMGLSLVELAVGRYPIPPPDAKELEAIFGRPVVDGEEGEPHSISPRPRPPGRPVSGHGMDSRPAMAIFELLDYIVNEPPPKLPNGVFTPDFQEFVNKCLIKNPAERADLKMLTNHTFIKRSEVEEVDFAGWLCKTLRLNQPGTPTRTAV
Chain of CDK4 (P11802 2-303): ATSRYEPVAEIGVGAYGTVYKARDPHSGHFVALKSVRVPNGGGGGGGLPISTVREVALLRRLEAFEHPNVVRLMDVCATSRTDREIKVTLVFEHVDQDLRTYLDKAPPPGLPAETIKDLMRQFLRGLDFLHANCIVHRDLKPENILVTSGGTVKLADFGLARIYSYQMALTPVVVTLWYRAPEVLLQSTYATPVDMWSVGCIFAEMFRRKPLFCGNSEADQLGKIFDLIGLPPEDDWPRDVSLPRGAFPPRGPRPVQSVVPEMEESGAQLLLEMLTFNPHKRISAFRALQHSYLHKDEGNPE

What is called Kd is a measure of binding affinity in units of concentration. Regarding `O=c1[nH]c2ccccc2n1CCCN1CCC(n2c(=O)[nH]c3cc(Cl)ccc32)CC1` [compound 9, Domperidone], the Kd stood at 6.66 µM on MEK2 and 6.2 µM at MEK1. For the same compound, the “pull-down with domperidone-Sepharose 4B beads and DARTS in KYSE150/KYSE450 lysat” value on CDK4 was “DARTS assay also validated that domperidone could directly interact with MEK1, MEK2 and CDK4 ex vivo”.

The values are drawn from paper PMC10964662, “Domperidone inhibits cell proliferation via targeting MEK and CDK4 in esophageal squamous cell carcinoma” (Cancer Cell International, 2024).
